These results are taken from PubChem BioAssay (NCI).

The structures appear in SMILES notation.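 Each compound was tested at five concentrations against cells in 96-well plates for 48 hours. The concentration for full growth arrest is given as TGI.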 Some results are limits rather than exact numbers.

The test system of one assay is HOP-92 NSCLC. As to the kind of experiment: inhibition of tumour cell growth, NCI panel, 48 h.
Turning to `ClC1=C(Cl)C(Cl)(Cl)SS1`, the TGI is greater than 8.63 µM.
Regarding `O=S(/C=C/C=C/S(=O)(=O)c1ccccc1)c1ccccc1` (centres undefined), the TGI was determined as 4.87 µM.
Consider `CC(C)CSCC1OC(n2cnc3c(N)nccc32)C(O)C1O` (centres undefined), for which the TGI is greater than 100 µM.

The next assay concerns LOX IMVI melanoma. As to the kind of experiment: inhibition of tumour cell growth, NCI panel, 48 h.
The molecule `ClC1=C(Cl)C(Cl)(Cl)SS1` gave a TGI greater than 10 µM.
On the same count and under the same terms, to `O=S(/C=C/C=C/S(=O)(=O)c1ccccc1)c1ccccc1` (centres undefined) belongs greater than 3.89 µM.
As for `CC(C)CSCC1OC(n2cnc3c(N)nccc32)C(O)C1O` (centres undefined), the TGI is greater than 100 µM.

The subject of a further assay is IGROV1 ovarian. Nature of the assay: inhibition of tumour cell growth, NCI panel, 48 h.
`ClC1=C(Cl)C(Cl)(Cl)SS1` registered a TGI greater than 10 µM.
In turn, `O=S(/C=C/C=C/S(=O)(=O)c1ccccc1)c1ccccc1` (centres undefined) yielded a TGI greater than 10 µM.
Turning to `CC(C)CSCC1OC(n2cnc3c(N)nccc32)C(O)C1O` (centres undefined), the TGI was greater than 100 µM.

The next assay deals with HOP-62 NSCLC. As to the kind of experiment: inhibition of tumour cell growth, NCI panel, 48 h.
In turn, `ClC1=C(Cl)C(Cl)(Cl)SS1` displayed a TGI greater than 10 µM.
Regarding `O=S(/C=C/C=C/S(=O)(=O)c1ccccc1)c1ccccc1` (centres undefined), the TGI was greater than 10 µM.
Take `CC(C)CSCC1OC(n2cnc3c(N)nccc32)C(O)C1O` (centres undefined): the TGI is greater than 100 µM.

The test system of a further assay is U251 CNS. Nature of the assay: inhibition of tumour cell growth, NCI panel, 48 h.
The molecule `ClC1=C(Cl)C(Cl)(Cl)SS1` yielded a TGI greater than 10 µM.
The molecule `O=S(/C=C/C=C/S(=O)(=O)c1ccccc1)c1ccccc1` (centres undefined) showed a TGI greater than 10 µM.
Consider `CC(C)CSCC1OC(n2cnc3c(N)nccc32)C(O)C1O` (centres undefined), for which the TGI is greater than 100 µM.

Another assay deals with SK-MEL-2 melanoma. As to the kind of experiment: inhibition of tumour cell growth, NCI panel, 48 h.
In the case of `ClC1=C(Cl)C(Cl)(Cl)SS1`, the TGI was greater than 10 µM.
For the molecule `O=S(/C=C/C=C/S(=O)(=O)c1ccccc1)c1ccccc1` (centres undefined), the TGI was found to be 4.2 µM.
Molecule `CC(C)CSCC1OC(n2cnc3c(N)nccc32)C(O)C1O` (centres undefined) showed a TGI greater than 100 µM.

The next assay has as its system SNB-75 CNS. Nature of the assay: inhibition of tumour cell growth, NCI panel, 48 h.
`ClC1=C(Cl)C(Cl)(Cl)SS1`: the TGI was greater than 10 µM.
The molecule `O=S(/C=C/C=C/S(=O)(=O)c1ccccc1)c1ccccc1` (centres undefined) gave a TGI greater than 10 µM.
In turn, `CC(C)CSCC1OC(n2cnc3c(N)nccc32)C(O)C1O` (centres undefined) showed a TGI greater than 100 µM.

The next assay relates to M14 melanoma. Nature of the assay: inhibition of tumour cell growth, NCI panel, 48 h.
Regarding `ClC1=C(Cl)C(Cl)(Cl)SS1`, the TGI was greater than 10 µM.
`O=S(/C=C/C=C/S(=O)(=O)c1ccccc1)c1ccccc1` (centres undefined) displayed a TGI of 1.56 µM.
In the case of `CC(C)CSCC1OC(n2cnc3c(N)nccc32)C(O)C1O` (centres undefined), the TGI is greater than 100 µM.

For another assay, the system named is K-562 leukemia. As to the kind of experiment: inhibition of tumour cell growth, NCI panel, 48 h.
For `ClC1=C(Cl)C(Cl)(Cl)SS1`, the TGI was greater than 7.82 µM.
Regarding `O=S(/C=C/C=C/S(=O)(=O)c1ccccc1)c1ccccc1` (centres undefined), the TGI worked out at 2.83 µM.
As for `CC(C)CSCC1OC(n2cnc3c(N)nccc32)C(O)C1O` (centres undefined), the TGI is greater than 100 µM.

Another assay has as its system NCI/ADR-RES ovarian. Nature of the assay: inhibition of tumour cell growth, NCI panel, 48 h.
`ClC1=C(Cl)C(Cl)(Cl)SS1` returned a TGI greater than 10 µM.
The molecule `O=S(/C=C/C=C/S(=O)(=O)c1ccccc1)c1ccccc1` (centres undefined) returned a TGI of 5.02 µM.
Same read-out and setting: to `CC(C)CSCC1OC(n2cnc3c(N)nccc32)C(O)C1O` (centres undefined) belongs greater than 100 µM.

Another assay relates to T-47D breast. Nature of the assay: inhibition of tumour cell growth, NCI panel, 48 h.
Molecule `ClC1=C(Cl)C(Cl)(Cl)SS1` gave a TGI greater than 10 µM.
Consider `O=S(/C=C/C=C/S(=O)(=O)c1ccccc1)c1ccccc1` (centres undefined), for which the TGI was greater than 4.97 µM.
Molecule `CC(C)CSCC1OC(n2cnc3c(N)nccc32)C(O)C1O` (centres undefined) returned a TGI greater than 100 µM.

Another assay relates to COLO 205 colon. Nature of the assay: inhibition of tumour cell growth, NCI panel, 48 h.
With `ClC1=C(Cl)C(Cl)(Cl)SS1`, the TGI amounted to 3.73 µM.
In the case of `O=S(/C=C/C=C/S(=O)(=O)c1ccccc1)c1ccccc1` (centres undefined), the TGI turned out to be 3.48 µM.
For the molecule `CC(C)CSCC1OC(n2cnc3c(N)nccc32)C(O)C1O` (centres undefined), the TGI was greater than 100 µM.

A further assay deals with HCT-116 colon. As to the kind of experiment: inhibition of tumour cell growth, NCI panel, 48 h.
On to `ClC1=C(Cl)C(Cl)(Cl)SS1`, for which the TGI is greater than 6.72 µM.
The same measure, in the same setting: the figure for `O=S(/C=C/C=C/S(=O)(=O)c1ccccc1)c1ccccc1` (centres undefined) is 2.84 µM; for `CC(C)CSCC1OC(n2cnc3c(N)nccc32)C(O)C1O` (centres undefined) it is greater than 100 µM.

Another assay has as its system NCI-H23 lung. Nature of the assay: inhibition of tumour cell growth, NCI panel, 48 h.
In the case of `ClC1=C(Cl)C(Cl)(Cl)SS1`, the TGI is greater than 10 µM.
On the same count and under the same terms, to `O=S(/C=C/C=C/S(=O)(=O)c1ccccc1)c1ccccc1` (centres undefined) belongs 4.39 µM.
The molecule `CC(C)CSCC1OC(n2cnc3c(N)nccc32)C(O)C1O` (centres undefined) came in with a TGI greater than 100 µM.

A further assay deals with SK-MEL-5 melanoma. Nature of the assay: inhibition of tumour cell growth, NCI panel, 48 h.
On to `ClC1=C(Cl)C(Cl)(Cl)SS1`, for which the TGI was greater than 10 µM.
Take `O=S(/C=C/C=C/S(=O)(=O)c1ccccc1)c1ccccc1` (centres undefined): the TGI is 3.91 µM.
